Measured values: article PMC3044687, “The C-Terminal Domain of the Arabinosyltransferase Mycobacterium tuberculosis EmbC Is a Lectin-Like Carbohydrate Binding Module” (PLoS Pathogens, 2011)

Legend:
Type in all cases: binding
[1] = target: EmbC^CT(W868A) (Mycobacterium tuberculosis, UniProt P9WNL5, W868A)
[2] = target: EmbC^CT(W985A) (Mycobacterium tuberculosis, UniProt P9WNL5, W985A)
[3] = target: EmbC^CT(N740A) (Mycobacterium tuberculosis, UniProt P9WNL5, N740A)
[4] = target: EmbC^CT(H911A) (Mycobacterium tuberculosis, UniProt P9WNL5, H911A)

SMILES | effect of W868A mutation on ligand binding (in words) [1] | Fmax [2] | effect of W985A mutation on ligand binding (in words) [2] | Fmax [3] | Fmax [1] | Fmax [4]
CCCCCCCCO[C@H]1O[C@H](CO[C@H]2O[C@H](CO[C@H]3O[C@H](CO[C@H]4O[C@H](CO[C@H]5O[C@H](CO)[C@@H](O)[C@@H]5O)[C@@H](O)[C@@H]4O)[C@@H](O)[C@@H]3O)[C@@H](O)[C@@H]2O)[C@@H](O)[C@@H]1O [Ara(1→5)4Ara-O-C8, [α-D-Araf-(1→5)]4-α-D-Araf-O-(CH2)7CH3] | completely inhibited | 0.164 | insensitive |  |  | 
CCCCCCCCO[C@H]1O[C@H](CO[C@H]2O[C@H](CO)[C@@H](O)[C@@H]2O)[C@@H](O)[C@@H]1O [Ara(1→5)Ara-O-C8, α-D-Araf-(1→5)-α-D-Araf-O-(CH2)7CH3] | preserved binding |  | virtually abrogated binding | 0.141 | 0.162 | 0.170
